Test results published in the supplement of paper PMC5412046.

What was measured:
SB.msgc-1 [1] = assay: area under the dose-response curve of % viability (trapezoidal, 11 doses) (% viability x log10 concentration); higher = less cytotoxic; conditions: SB.msgc-1 (sporadic gastric cancer)
Summary of the method: (§1)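 Viability values are normalised to DMSO and given either at the highest concentration or as trapezoidal area under the curve. The assay used 500 hereditary or sporadic patient-derived gastric cancer cells in 5 μL medium per 1536 well, dosed by pintool with 23 nL of compound in DMSO at 11 threefold-diluted concentrations. CellTiter-Glo was added 48 h later for 30 min at room temperature, followed by luminescence reading on a ViewLux.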

SB.mhdgc-1 [2] = assay: as above; conditions: SB.mhdgc-1 (hereditary c.1380delA CDH1 gastric cancer)
Summary of the method: as §1

SB.msgc-1 [3] = assay: viability at highest tested concentration (MAXR) relative to DMSO; higher = less cytotoxic; conditions: SB.msgc-1 (sporadic gastric cancer)
Summary of the method: as §1

SB.mhdgc-1 [4] = assay: as above; conditions: SB.mhdgc-1 (hereditary c.1380delA CDH1 gastric cancer)
Summary of the method: as §1

## C[Se]CC[C@H](N)C(=O)O [L-selenomethionine] (top concentration 92.1659 µM)
SB.msgc-1 [1]
  area under the dose-response curve: 312
SB.mhdgc-1 [2]
  area under the dose-response curve: 494
SB.msgc-1 [3]
  viability: 70.2%
SB.mhdgc-1 [4]
  viability: 92.5%

## CC[C@@H]1C(=O)N(C)c2cnc(Nc3ccc(C(=O)NC4CCC(N5CCN(CC6CC6)CC5)CC4)cc3OC)nc2N1C(C)C (stereo not given in full) [Volasertib] (top concentration 46.0829 µM)
SB.msgc-1 [1]
  area under the dose-response curve: 345
SB.mhdgc-1 [2]
  area under the dose-response curve: 363
SB.msgc-1 [3]
  viability: 16.2%
SB.mhdgc-1 [4]
  viability: 3.26%

## Cc1nnc(C(=O)NC(C)(C)c2nc(C(=O)NCc3ccc(F)cc3)c(O)c(=O)n2C)o1 [Raltegravir] (top concentration 46.0829 µM)
SB.msgc-1 [1]
  area under the dose-response curve: 555
SB.mhdgc-1 [2]
  area under the dose-response curve: 512
SB.msgc-1 [3]
  viability: 106%
SB.mhdgc-1 [4]
  viability: 99.9%

## COc1ccc(Cc2ccc(NC(N)=O)cc2)cc1-c1cccc(Cl)c1 (top concentration 46.0829 µM)
SB.msgc-1 [1]
  area under the dose-response curve: 579
SB.mhdgc-1 [2]
  area under the dose-response curve: 492
SB.msgc-1 [3]
  viability: 81.3%
SB.mhdgc-1 [4]
  viability: 84.8%

## Fc1ccc(CNc2ncnc3ccc(F)cc23)cc1 [Spautin-1] (top concentration 46.0829 µM)
SB.msgc-1 [1]
  area under the dose-response curve: 470
SB.mhdgc-1 [2]
  area under the dose-response curve: 505
SB.msgc-1 [3]
  viability: 61.4%
SB.mhdgc-1 [4]
  viability: 67.9%

## C=C1C[C@@]2(O)O[C@@]3(C[C@H]2C(C)C)[C@@H](C)CC[C@@H]13 [Curcumol] (top concentration 46.0829 µM)
SB.msgc-1 [1]
  area under the dose-response curve: 556
SB.mhdgc-1 [2]
  area under the dose-response curve: 587
SB.msgc-1 [3]
  viability: 120%
SB.mhdgc-1 [4]
  viability: 104%

## Cn1c(CCCC(=O)O)nc2cc(N(CCCl)CCCl)ccc21 [Bendamustine] (top concentration 46.0829 µM)
SB.msgc-1 [1]
  area under the dose-response curve: 541
SB.mhdgc-1 [2]
  area under the dose-response curve: 542
SB.msgc-1 [3]
  viability: 84.1%
SB.mhdgc-1 [4]
  viability: 60.2%

## CNC(=O)c1ccc(N2C(=S)N(c3cnc(C#N)c(C(F)(F)F)c3)C(=O)C23CCC3)cc1F [ARN-509] (top concentration 46.0829 µM)
SB.msgc-1 [1]
  area under the dose-response curve: 317
SB.mhdgc-1 [2]
  area under the dose-response curve: 297
SB.msgc-1 [3]
  viability: 0.835%
SB.mhdgc-1 [4]
  viability: 2.3%

## COC1=CC=CC(=C1/C2=N/CC3=C(N=C(NC4=CC(=C(C=C4)C(O)=O)OC)N=C3)C5=CC=C(Cl)C=C25)F [Alisertib] (top concentration 46.0829 µM)
SB.msgc-1 [1]
  area under the dose-response curve: 461
SB.mhdgc-1 [2]
  area under the dose-response curve: 382
SB.msgc-1 [3]
  viability: 64.5%
SB.mhdgc-1 [4]
  viability: 74.4%

## NC[C@H]1O[C@H](O[C@H]2[C@H](O)[C@@H](O[C@H]3O[C@H](CO)[C@@H](O)[C@H](N)[C@H]3O)[C@H](N)C[C@@H]2N)[C@H](N)C[C@@H]1O [Tobramycin] (top concentration 46.0829 µM)
SB.msgc-1 [1]
  area under the dose-response curve: 515
SB.mhdgc-1 [2]
  area under the dose-response curve: 536
SB.msgc-1 [3]
  viability: 112%
SB.mhdgc-1 [4]
  viability: 110%

## C[C@H](NC(=O)/C(C#N)=C/c1cccc(Br)n1)c1ccccc1 [WP-1066] (top concentration 46.0829 µM)
SB.msgc-1 [1]
  area under the dose-response curve: 408
SB.mhdgc-1 [2]
  area under the dose-response curve: 431
SB.msgc-1 [3]
  viability: 7.12%
SB.mhdgc-1 [4]
  viability: 28.2%

## CN1CCN(c2cccc(Nc3nc4c(-c5ccc([S+](C)(=O)[O-])cc5)cccn4n3)c2)CC1 (top concentration 46.0829 µM)
SB.msgc-1 [1]
  area under the dose-response curve: 494
SB.mhdgc-1 [2]
  area under the dose-response curve: 450
SB.msgc-1 [3]
  viability: 68%
SB.mhdgc-1 [4]
  viability: 71.6%

## CCc1ccc(/C=C2/SC(=S)NC2=O)cc1 (top concentration 46.0829 µM)
SB.msgc-1 [1]
  area under the dose-response curve: 410
SB.mhdgc-1 [2]
  area under the dose-response curve: 400
SB.msgc-1 [3]
  viability: 55.9%
SB.mhdgc-1 [4]
  viability: 87.1%

## Cc1c(C(=O)Nc2ccc(N3C[C@@H](C)O[C@@H](C)C3)nc2)cccc1-c1ccc(OC(F)(F)F)cc1 [NVP-LDE-225] (top concentration 46.0829 µM)
SB.msgc-1 [1]
  area under the dose-response curve: 488
SB.mhdgc-1 [2]
  area under the dose-response curve: 479
SB.msgc-1 [3]
  viability: 40.3%
SB.mhdgc-1 [4]
  viability: 43.9%

## C[C@](N)(Cc1ccc(O)c(O)c1)C(=O)O [Methyldopa] (top concentration 46.0829 µM)
SB.msgc-1 [1]
  area under the dose-response curve: 519
SB.mhdgc-1 [2]
  area under the dose-response curve: 469
SB.msgc-1 [3]
  viability: 105%
SB.mhdgc-1 [4]
  viability: 63.7%

## Cc1nc(C(=O)NCC(=O)O)c(O)c2ccc(Oc3ccccc3)cc12 [FG-4592] (top concentration 46.0829 µM)
SB.msgc-1 [1]
  area under the dose-response curve: 580
SB.mhdgc-1 [2]
  area under the dose-response curve: 513
SB.msgc-1 [3]
  viability: 98.3%
SB.mhdgc-1 [4]
  viability: 86.4%

## Nc1nc(N)c2nc(CNc3ccc(C(=O)NC(CCC(=O)O)C(=O)O)cc3)cnc2n1 (stereo not given) [Aminopterin] (top concentration 46.0829 µM)
SB.msgc-1 [1]
  area under the dose-response curve: 285
SB.mhdgc-1 [2]
  area under the dose-response curve: 409
SB.msgc-1 [3]
  viability: 36.4%
SB.mhdgc-1 [4]
  viability: 49.4%

## Nc1nc(N)c(N=O)c(OCC2CCCCC2)n1 [NU-6027] (top concentration 46.0829 µM)
SB.msgc-1 [1]
  area under the dose-response curve: 505
SB.mhdgc-1 [2]
  area under the dose-response curve: 432
SB.msgc-1 [3]
  viability: 69.3%
SB.mhdgc-1 [4]
  viability: 53.7%

## CC(C(C)N1CC(=O)NC(=O)C1)N1CC(=O)NC(=O)C1 (stereo not given) [ICRF-193] (top concentration 46.0829 µM)
SB.msgc-1 [1]
  area under the dose-response curve: 479
SB.mhdgc-1 [2]
  area under the dose-response curve: 478
SB.msgc-1 [3]
  viability: 93.8%
SB.mhdgc-1 [4]
  viability: 73.7%

## C[C@H]([C@H](O)CCC(C)(C)O)[C@H]1CC[C@@]2(O)C/3=C/C(=O)[C@@H]4C[C@@H](O)[C@@H](O)C[C@]4(C)[C@H]3CC[C@]12C [Ecdysone] (top concentration 46.0829 µM)
SB.msgc-1 [1]
  area under the dose-response curve: 561
SB.mhdgc-1 [2]
  area under the dose-response curve: 582
SB.msgc-1 [3]
  viability: 112%
SB.mhdgc-1 [4]
  viability: 142%
